Measurements published in patent US20240287070A1, “FUSED HETEROCYCLIC DERIVATIVES” (Janssen Sciences Ireland Unlimited Company, priority 2021, published 2024).

Columns and labels:
[1] = Cytotoxicity, ATPlite Luminescence Assay; format: cell-based, human; details: human, HepG2 or HepG2.117 cells, 3-days incubation unless marked with *
How it was run: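 Compounds were added to cells and incubated 3 or 4 days. ATP content was then measured by luminescence to gauge cell viability.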

[2] = Human liver microsome stability; format: in vitro ADME; details: 1 μM compound, NADPH 1 mM, 37° C., 0-60 min; for half-life at 1 μM: human, pooled human liver microsomes, pH 7.4, pooled human liver microsomes 0.5 mg/mL, read-out: HLM Metabolism t1/2
How it was run: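 Half-life came from elimination rate constant (negative slope of ln compound/internal standard area ratio over time), measured by cassette LC-MS after acetonitrile quench. Human liver microsome reactions, one replicate per compound, were initiated with NADPH (1 mM final) and sampled at six points up to 60 min.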

[3] = test system: HBV (HepG2.117 cell line, inducibly HBV producing); assay: Anti-HBV activity, intracellular HBV DNA by real-time PCR in HepG2.117 cell line; format: cell-based, hepatitis B virus; details: HepG2.117 cells, 3 days of treatment
How it was run: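 Tet-off HepG2.117; HBV replication induced (no doxycycline); serial compound dilutions, 3 d; intracellular HBV DNA by real-time PCR, HBV-specific primers/probe.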

[4] = Hepatitis B virus, HepG2.117, 72 h

SMILES | CC50 at 3 days [1] | half-life at 1 μM [2] | EC50 [3, 4] | EC50 [3] | HLM Metabolism t1/2 ([2]; pooled human liver microsomes 0.5 mg/mL)
C[C@@H]1Cc2nn3c(c2CN1C(=O)c1ccc(Cl)c(C(F)(F)F)c1)C(=O)N([C@@H](C)c1ccc([S@](C)(=N)=O)cc1)C[C@H]3C (relative stereo) [Compound 19C, (3R,7R)-2-(4-chloro-3-(trifluoromethyl)benzoyl)-3,7-dimethyl-9-((S*)-1-(4-((R*)—S-methylsulfonimidoyl)phenyl)ethyl)-1,2,3,4,8,9-hexahydropyrido[4′,3′:3,4]pyrazolo[1,5-a]pyrazin-10(7H)-one] | > 50 µM | > 3 h | 0.011 µM | – | –
CC(c1ccnc(Cl)c1)N1C[C@@H](C)n2nc3c(c2C1=O)CN(C(=O)c1ccc(Cl)c(Cl)c1)[C@H](C)C3 (single isomer, unassigned) [Compound 31A, (3R,7R)-9-((R*)-1-(2-chloropyridin-4-yl)ethyl)-2-(3,4-dichlorobenzoyl)-3,7-dimethyl-1,2,3,4,8,9-hexahydropyrido[4′,3′:3,4]pyrazolo[1,5-a]pyrazin-10(7H)-one] | 31.5 µM | 1.9 h | – | 0.051 µM | –
CC(c1ccc(S(C)(=O)=O)cc1)N1C[C@@H](C)n2nc3c(c2C1=O)CN(C(=O)c1ccc(Cl)c(Cl)c1)[C@H](C)C3 (single isomer, unassigned) [Compound 15A, (3R,7R)-2-(3,4-dichlorobenzoyl)-3,7-dimethyl-9-((R*)-1-(4-(methylsulfonyl)phenyl)ethyl)-1,2,3,4,8,9-hexahydropyrido[4′,3′:3,4]pyrazolo[1,5-a]pyrazin-10(7H)-one] | > 50 µM | > 3 h | – | 0.063 µM | –
CN=[S@@](C)(=O)c1ccc([C@@H](C)N2C[C@@H](C)n3nc4c(c3C2=O)CN(C(=O)c2ccc(Cl)c(Cl)c2)[C@H](C)C4)cn1 (relative stereo) [Compound 29B, (3R,7R)-2-(3,4-dichlorobenzoyl)-9-((R*)-1-(6-((S*)—N,S-dimethylsulfonimidoyl)pyridin-3-yl)ethyl)-3,7-dimethyl-1,2,3,4,8,9-hexahydropyrido[4′,3′:3,4]pyrazolo[1,5-a]pyrazin-10(7H)-one] | > 50 µM | > 3 h | 0.81 µM | – | –
C[C@@H]1Cc2nn3c(c2CN1C(=O)c1ccc(Cl)c(C#N)c1)C(=O)N([C@H](C)c1ccc(OC(F)F)cc1)C[C@@H]3C (relative stereo) [Compound 1A, 2-Chloro-5-((3R,7S*)-9-((R*)-1-(4-(difluoromethoxy)phenyl)ethyl)-3,7-dimethyl-10-oxo-1,2,3,4,7,8,9,10-octahydropyrido[4′,3′:3,4]pyrazolo[1,5-a]pyrazine-2-carbonyl)benzonitrile] | > 50 µM | 0.235 h | 0.21 µM | – | –
CC(c1ccc(C(C)(C)O)nc1)N1C[C@@H](C)n2nc3c(c2C1=O)CN(C(=O)c1ccc(Cl)c(F)c1F)[C@H](C)C3 (single isomer, unassigned) [Compound 61A, (3R,7R)-2-(4-chloro-2,3-difluorobenzoyl)-9-((R*)-1-(6-(2-hydroxypropan-2-yl)pyridin-3-yl)ethyl)-3,7-dimethyl-1,2,3,4,8,9-hexahydropyrido[4′,3′:3,4]pyrazolo[1,5-a]pyrazin-10(7H)-one] | > 50 µM | > 3 h | – | 2.34 µM | –
CC(c1ccc(C(C)(C)O)nc1)N1C[C@@H](C)n2nc3c(c2C1=O)CN(C(=O)c1ccc(Cl)c(C(F)(F)F)n1)[C@H](C)C3 (single isomer, unassigned) [Compound 62A, (3R,7R)-2-(5-chloro-6-(trifluoromethyl)picolinoyl)-9-((R*)-1-(6-(2-hydroxypropan-2-yl)pyridin-3-yl)ethyl)-3,7-dimethyl-1,2,3,4,8,9-hexahydropyrido[4′,3′:3,4]pyrazolo[1,5-a]pyrazin-10(7H)-one] | > 50 µM | > 3 h | – | 0.61 µM | –
CC(c1ccc(C(C)(C)O)cc1)N1C[C@@H](C)n2nc3c(c2C1=O)CN(C(=O)c1ccc(Cl)c(Cl)c1)[C@H](C)C3 (single isomer, unassigned) [Compound 8A, (3R,7R)-2-(3,4-dichlorobenzoyl)-9-((R*)-1-(4-(2-hydroxypropan-2-yl)phenyl)ethyl)-3,7-dimethyl-1,2,3,4,8,9-hexahydropyrido[4′,3′:3,4]pyrazolo[1,5-a]pyrazin-10(7H)-one] | 20.1 µM | > 3 h | – | 0.024 µM | –
CC(c1ccnc(OC(F)F)c1)N1C[C@@H](C)n2nc3c(c2C1=O)CN(C(=O)c1ccc(Cl)c(C(F)(F)F)c1)[C@H](C)C3 (single isomer, unassigned) [Compound 50A, (3R,7R)-2-(4-chloro-3-(trifluoromethyl)benzoyl)-9-((R*)-1-(2-(difluoromethoxy)pyridin-4-yl)ethyl)-3,7-dimethyl-1,2,3,4,8,9-hexahydropyrido[4′,3′:3,4]pyrazolo[1,5-a]pyrazin-10(7H)-one] | 12.5 µM | > 3 h | – | 0.066 µM | –
CC(c1ccc(C(C)(C)O)nc1)N1C[C@@H](C)n2nc3c(c2C1=O)CN(C(=O)c1ccc(Cl)c(Cl)c1)[C@H](C)C3 (single isomer, unassigned) [Compound 2A, (3R,7R)-2-(3,4-dichlorobenzoyl)-9-((R*)-1-(6-(2-hydroxypropan-2-yl)pyridin-3-yl)ethyl)-3,7-dimethyl-1,2,3,4,8,9-hexahydropyrido[4′,3′:3,4]pyrazolo[1,5-a]pyrazin-10(7H)-one] | > 50 µM | > 3 h | – | 0.099 µM | –
CC(c1ccc(C(C)(C)O)nc1)N1C[C@@H](C)n2nc3c(c2C1=O)CN(C(=O)c1cc(C(F)(F)F)c(Cl)cn1)[C@H](C)C3 (single isomer, unassigned) [Compound 58A, (3R,7R)-2-(5-chloro-4-(trifluoromethyl)picolinoyl)-9-((R*)-1-(6-(2-hydroxypropan-2-yl)pyridin-3-yl)ethyl)-3,7-dimethyl-1,2,3,4,8,9-hexahydropyrido[4′,3′:3,4]pyrazolo[1,5-a]pyrazin-10(7H)-one] | > 50 µM | > 3 h | – | > 2.5 µM | –
CC(c1cnc(C(F)(F)F)nc1)N1C[C@@H](C)n2nc3c(c2C1=O)CN(C(=O)c1ccc(Cl)c(Cl)c1)[C@H](C)C3 (single isomer, unassigned) [Compound 34A, (3R,7R)-2-(3,4-dichlorobenzoyl)-3,7-dimethyl-9-((R*)-1-(2-(trifluoromethyl)pyrimidin-5-yl)ethyl)-1,2,3,4,8,9-hexahydropyrido[4′,3′:3,4]pyrazolo[1,5-a]pyrazin-10(7H)-one] | > 50 µM | > 3 h | – | 0.63 µM | –
CC(c1ccc(-n2cncn2)cc1)N1C[C@@H](C)n2nc3c(c2C1=O)CN(C(=O)c1ccc(Cl)c(C#N)c1)[C@H](C)C3 (single isomer, unassigned) [Compound 11A, 5-((3R,7R)-9-((R*)-1-(4-(1H-1,2,4-Triazol-1-yl)phenyl)ethyl)-3,7-dimethyl-10-oxo-1,2,3,4,7,8,9,10-octahydropyrido[4′,3′:3,4]pyrazolo[1,5-a]pyrazine-2-carbonyl)-2-chlorobenzonitrile] | > 50 µM | > 3 h | 0.039 µM | – | –
Cc1nnn(-c2ccc(C(C)N3C[C@@H](C)n4nc5c(c4C3=O)CN(C(=O)c3ccc(Cl)c(Cl)c3)[C@H](C)C5)cn2)n1 (single isomer, unassigned) [Compound 26A, (3R,7R)-2-(3,4-dichlorobenzoyl)-3,7-dimethyl-9-((R*)-1-(6-(5-methyl-2H-tetrazol-2-yl)pyridin-3-yl)ethyl)-1,2,3,4,8,9-hexahydropyrido[4′,3′:3,4]pyrazolo[1,5-a]pyrazin-10(7H)-one] | > 50 µM | 1.38 h | – | 0.14 µM | –
CC(c1cnc(C(C)(C)O)nc1)N1C[C@@H](C)n2nc3c(c2C1=O)CN(C(=O)c1ccc(Cl)c(C(F)(F)F)c1)[C@H](C)C3 (single isomer, unassigned) [Compound 35A, (3R,7R)-2-(4-chloro-3-(trifluoromethyl)benzoyl)-9-((R*)-1-(2-(2-hydroxypropan-2-yl)pyrimidin-5-yl)ethyl)-3,7-dimethyl-1,2,3,4,8,9-hexahydropyrido[4′,3′:3,4]pyrazolo[1,5-a]pyrazin-10(7H)-one] | > 50 µM | – | – | 0.2 µM | 0.783 h
CC(c1ncc(C(F)(F)F)cn1)N1C[C@@H](C)n2nc3c(c2C1=O)CN(C(=O)c1ccc(Cl)c(Cl)c1)[C@H](C)C3 (single isomer, unassigned) [Compound 40A, (3R,7R)-2-(3,4-dichlorobenzoyl)-3,7-dimethyl-9-((R*)-1-(5-(trifluoromethyl)pyrimidin-2-yl)ethyl)-1,2,3,4,8,9-hexahydropyrido[4′,3′:3,4]pyrazolo[1,5-a]pyrazin-10(7H)-one] | 22 µM | > 3 h | – | 0.054 µM | –
C[C@@H]1Cc2nn3c(c2CN1C(=O)c1ccc(Cl)c(Cl)c1)C(=O)N([C@@H](C)c1ccc([S@](C)(=N)=O)cc1)C[C@H]3C (relative stereo) [Compound 18C, (3R,7R)-2-(3,4-dichlorobenzoyl)-3,7-dimethyl-9-((S*)-1-(4-((R*)—S-methylsulfonimidoyl)phenyl)ethyl)-1,2,3,4,8,9-hexahydropyrido[4′,3′:3,4]pyrazolo[1,5-a]pyrazin-10(7H)-one] | > 50 µM | > 3 h | 0.03 µM | – | –
